Literature values, collected in patent publication US20240082222A1, “4-CHLORO-N-[2-[(4-CHLOROPHENYL)METHYL]-3-OXO-1,2,4-THIADIAZOL-5-YL]BENZAMIDE FOR USE IN MEDICINE” (Betagenon AB, priority 2021, published 2024).

Legend:
[1] = mice, lumbar disc puncture and postoperative pain models; cited from earlier work
[2] = 1000 mg/day in suspension, day 28, patients with type-2 diabetes; cited from earlier work

O=C(Nc1nc(=O)n(Cc2ccc(Cl)cc2)s1)c1ccc(Cl)cc1 [compound of formula I, 4-chloro-N-[2-[(4-chlorophenyl)methyl]-3-oxo-1,2,4-thiadiazol-5-yl]benzamide]
treatment of pain (mechanical hypersensitivity) [1]: effective at treating pain | mean Cmax [2]: 55 µg/mL

CN(C)C(=N)N=C(N)N [metformin, reference compound]
treatment of pain (mechanical hypersensitivity) [1]: effective at treating pain
